Test results reported in patent publication US20130012709A1, “NOVEL INHIBITORS OF STEAROYL-CoA-DESATURASE-1 AND THEIR USES” (CENTRE NATIONAL DE LA RECHERCHE SCIENTIFIQUE, priority 2009, published 2013).

How the values were obtained:
SCD-1 = target: T1, SCD-1 (Homo sapiens, UniProt O00767); experiment: Determination of SCD activity, [14C] palmitic to palmitoleic acid conversion in cells; type: cell-based; details: all three cell lines (LNCaP, C4-2, PNT2), 25 μM
T1 construct: endogenous in cells; host or cells: LNCaP, C4-2, PNT2 cells
T1 sequence (O00767 1-359): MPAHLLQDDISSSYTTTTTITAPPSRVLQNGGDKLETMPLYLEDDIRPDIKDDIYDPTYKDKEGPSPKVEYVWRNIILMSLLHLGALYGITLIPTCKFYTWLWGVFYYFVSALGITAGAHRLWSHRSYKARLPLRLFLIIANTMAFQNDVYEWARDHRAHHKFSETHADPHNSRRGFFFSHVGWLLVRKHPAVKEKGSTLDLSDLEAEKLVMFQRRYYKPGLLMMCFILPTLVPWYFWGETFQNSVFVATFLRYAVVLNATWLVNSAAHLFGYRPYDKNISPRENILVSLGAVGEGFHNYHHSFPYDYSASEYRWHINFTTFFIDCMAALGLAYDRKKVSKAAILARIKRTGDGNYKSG
Method: Subconfluent LNCaP, C4-2, PNT2 of Ras SV40 MEFs cells grown in 6-wells plate were incubated with the tested inhibitor at 25 μM for 2 h in serum and fatty acid-free DMEM media supplemented 0.2% BSA. In this environment, the cells are solely dependent on endogenous fatty acid synthesis for production of storage, structural and signaling lipids. Trace amount of [^14C] palmitic acid were then added to the culture (0.5 μCi/well), and cells were incubated for 6 more hours. At the end of the incubation, total cell lipids were extracted and saponified, then released fatty acids were esterified with boron trifluoride in methanol for 90 min at 100° C. […] Air-dried plates were scanned on a Phosphorlmager and fatty acid spots on TLC were analysed with Phosphorlmager software. SCD activity was expressed as the ratio of palmitoleic on palmitic methyl ester acids and normalized to cellular DNA content.
The efficacy of the tested compound to inhibit SCD-1 activity has been evaluated by measuring the conversion of exogenous [^14C] saturated palmitic acid (16:0) to monounsaturated palmitoleic acid (16:1n-7). Moreover, the effects of inhibition of SCD-1 activity on lipid synthesis and proliferation in prostate cancer cell lines were analysed.

C4-2 cells [1] = experiment: Phospho-kinase array and immunoblot; type: cell-based, human
Method: (§1) Protein extracts and sodium dodecyl sulfate (SDS)-polyacrylamide gel electrophoresis (PAGE), electrotransfer and immunoblotting were performed as previously described (34). The primary antibodies rabbit anti-AMPK, rabbit anti-phospho AMPK (Thr172), rabbit anti-Akt and rabbit anti-phospho Akt were purchased from Cell signalling Technology (Ozyme, Saint Quentin Yvelines, France). The primary antibody mouse anti-tubulineα was purchased from Lab Vision (Thermo Fisher Scientific, Microm France, Francheville, France). The primary antibodies rabbit anti-p44/p42 MAPK, rabbit anti-phospho p44/p42 MAPK (Thr202/Tyr204), mouse anti-GSK3α/β, and rabbit anti-phospho GSK3α/β were kindly provided by Dr Gilles Freiss. LNCaP and C4-2 cells treated with the tested compound at 25 μM were analyzed for the relative phosphorylation of 46 kinase phosphorylation sites using human phospho-kinase array kit (Proteome Profiler™) according to the manufacturers' recommendations (R&D systems Europe, Lille, France).

LNCaP cells = experiment: Phospho-kinase array and immunoblot; type: cell-based, human
Method: as §1

C4-2 cells [2] = experiment: PI(3,4,5)P3 mass ELISA; type: cell-based, human; details: C4-2, 25 μM, 24 h, vs non-treated cells
Method: The production of PI(3,4,5)P3 (PIP3) in LNCaP and C4-2 prostate cancer cells was measured 24 h following exposure to control medium or to medium supplemented with the inhibitor tested at 25 μM. The levels of produced PIP3 were quantified after cellular lipids extraction using a PI(3,4,5)P3 mass ELISA kit according to the manufacturer's instruction.

[3] = tested on: β-catenin-Tcf4 complex in C4-2 cells; experiment: TCF/LEF-1 reporter (pTOP-FLASH) luciferase assay; type: cell-based, human
Method: (§2) The transcriptional activity of the β-catenin-Tcf4 complex was analysed by performing transient transfections with 0.25 μg TCF/LEF-1 reporter (pTOP-FLASH) or control vector (pFOP-FLASH).
(§3) Luciferase activities in cell lysates were normalized relative to the β-galactosidase activity to correct for differences in transfection efficiency.

[4] = tested on: β-catenin-Tcf4 complex in LNCaP cells; experiment: TCF/LEF-1 reporter (pTOP-FLASH) luciferase assay; type: cell-based, human
Method: as §2, §3

C4-2 tumors = experiment: Survival analysis of mice with pre-established C4-2 tumors; type: in vivo; details: for animals surviving at 14 days of treatment: control group 37.5%
Method: (§4) Male athymic nude Mice (Foxn1 nu/nu) (Harlan, Grannat, France) were used at the age of 7 weeks (weight 25-30 g). All procedures were performed in compliance with the European Convention for the Protection of Vertebrate Animals Used for Experimentation (animal house agreement # B-34-172-27, authorization for animal experimentation #34.324). Experiments were done at least twice for each tested condition. Animals were sacrificed before they became compromised. Xenografts were established by subcutaneously injecting 2×10^6 LNCaP cells, 2×10^6 C4-2 cells or 5×10^5 MEFs SV40 in 100 μl of a Matrigel solution. For curative experiments, tumors were allowed to growth until they were measurable with a caliper. In each group, the mice were randomized and given SCD-1 inhibitor at 80 mg/kg in 100 μl of a labrafil-DMA-tween^80 solution (89:10:1) (treated group) or vehicle alone (control group), by daily intra-peritoneal (i.p.) injection 5 days of week. For preventive experiments, the mice were treated daily for 7 days before the day of xenograft. Tumor volume measurements were taken twice to three times a week and calculated according to the formula: length×width×height×0.5236. Data are expressed as the mean tumor volume or as fold of the start point tumor volume. For survival analysis, animals bearing pre-established C4-2 tumors were treated with BZ36 at 80 mg/kg or 160 mg/kg or with vehicle by daily i.p. injection 5 days of week. All mice were monitored for survival until tumor volume had reached 2000 mm^3 or until death. Analysis of survival was conducted by a log-rank test based on the Kaplan-Meier method. At euthanasia, tumors were excised and fixed in 4% formalin for immunohistological analyses.

[5] = Toxicity in nude mice after daily i.p. injection; type: in vivo
Method: as §4, with “For survival analysis, animals bearing pre-established C4-2 tumors were treated with BZ36 at 80 mg/kg or 160 mg/kg or with vehicle by daily i.p. injection 5 days of week.” left out, “Analysis of survival was conducted by a log-rank test based on the Kaplan-Meier method. At euthanasia, tumors were excised and fixed in 4% formalin for immunohistological analyses.” left out

COc1ccc(Br)c(C(=O)N2CCN(c3ccc(C(=O)NCCCc4ccccc4)cn3)CC2)c1 [BZ36]
labelled monounsaturated palmitoleic acid vs control cells (SCD-1): marked reduction
phosphorylation of GSK3a/13 (C4-2 cells [1]; C4-2): abrogated
phosphorylation of AMPKcc (C4-2 cells [1]; C4-2, 25 μM): increased
Akt phosphorylation (5473/T308) (C4-2 cells [1]; C4-2, 25 μM, vs non-treated cells): decrease
phosphorylation of ERK1/2 (C4-2 cells [1]; C4-2, immunoblot): decreased phosphorylation
phosphorylation of MEK1/2 (S218/5222, S222/S226) (C4-2 cells [1]; C4-2, vs control cells): Significant decreases
phosphorylation of GSK3a/13 (LNCaP cells): abrogated
phosphorylation of AMPKcc (LNCaP cells; 25 μM): increased
Akt phosphorylation (5473/T308) (LNCaP cells; 25 μM, vs non-treated cells): decrease
phosphorylation of ERK1/2 (LNCaP cells; immunoblot): decreased phosphorylation
decrease of PI(3,4,5)P3 concentration (C4-2 cells [2]): 92%
activity of a β-cat reporter [3]: decreased activity
activity of a β-cat reporter [4]: decreased activity
animal survival in comparison to vehicle control (C4-2 tumors; 80 mg/kg or 160 mg/kg, p=0.038): significant and dose-dependant prolongation
animals surviving at 14 days of treatment (C4-2 tumors; 80 mg/kg): 75%
median survival (C4-2 tumors; 80 mg/kg, control group 14 days): 21 days
animals surviving at 28 days of treatment (C4-2 tumors; 160 mg/kg, control group 12.5%): 75%
animals surviving at 14 days of treatment (C4-2 tumors; 160 mg/kg): 100%
histological examination of liver and skin [5]: absence of toxicity
weight loss or other toxicity [5]: no significant weight loss or other toxicity
